Results: PubChem BioAssay (NCI)
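Method: 48-hour compound exposure of cells in 96-well plates, five concentrations, linear interpolation of endpoints. Here, GI50 denotes the concentration required for 50% inhibition of growth. TGI: concentration producing complete growth inhibition.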

Assays:
Experiment in all cases: growth of human tumour cells (NCI), 48 h
786-0 renal = test system: 786-0 renal
A498 renal = test system: A498 renal
A549 NSCLC = test system: A549 NSCLC
ACHN renal = test system: ACHN renal
BT-549 breast = test system: BT-549 breast
CAKI-1 renal = test system: CAKI-1 renal
CCRF-CEM leukemia = test system: CCRF-CEM leukemia
COLO 205 colon = test system: COLO 205 colon
DU-145 prostate = test system: DU-145 prostate
EKVX NSCLC = test system: EKVX NSCLC
HCT-116 colon = test system: HCT-116 colon
HCT-15 colon = test system: HCT-15 colon
HL-60(TB) leukemia = test system: HL-60(TB) leukemia
HOP-62 NSCLC = test system: HOP-62 NSCLC
HOP-92 NSCLC = test system: HOP-92 NSCLC
HS 578T breast = test system: HS 578T breast
HT29 colon = test system: HT29 colon
IGROV1 ovarian = test system: IGROV1 ovarian
K-562 leukemia = test system: K-562 leukemia
KM12 colon = test system: KM12 colon
LOX IMVI melanoma = test system: LOX IMVI melanoma
M14 melanoma = test system: M14 melanoma
MALME-3M melanoma = test system: MALME-3M melanoma
MCF7 breast = test system: MCF7 breast
MDA-MB-231 breast = test system: MDA-MB-231 breast
MDA-MB-435 = test system: MDA-MB-435
MOLT-4 leukemia = test system: MOLT-4 leukemia
NCI-H226 lung = test system: NCI-H226 lung
NCI-H23 lung = test system: NCI-H23 lung
NCI-H460 lung = test system: NCI-H460 lung
NCI-H522 lung = test system: NCI-H522 lung
NCI/ADR-RES ovarian = test system: NCI/ADR-RES ovarian
OVCAR-3 ovarian = test system: OVCAR-3 ovarian
OVCAR-4 ovarian = test system: OVCAR-4 ovarian
OVCAR-5 ovarian = test system: OVCAR-5 ovarian
OVCAR-8 ovarian = test system: OVCAR-8 ovarian
PC-3 prostate = test system: PC-3 prostate
RPMI-8226 leukemia = test system: RPMI-8226 leukemia
RXF 393 renal = test system: RXF 393 renal
SF-268 CNS = test system: SF-268 CNS
SF-295 CNS = test system: SF-295 CNS
SF-539 CNS = test system: SF-539 CNS
SK-MEL-2 melanoma = test system: SK-MEL-2 melanoma
SK-MEL-28 melanoma = test system: SK-MEL-28 melanoma
SK-MEL-5 melanoma = test system: SK-MEL-5 melanoma
SK-OV-3 ovarian = test system: SK-OV-3 ovarian
SN12C renal = test system: SN12C renal
SNB-19 CNS = test system: SNB-19 CNS
SNB-75 CNS = test system: SNB-75 CNS
SR leukemia = test system: SR leukemia
SW-620 colon = test system: SW-620 colon
T-47D breast = test system: T-47D breast
TK-10 renal = test system: TK-10 renal
U251 CNS = test system: U251 CNS
UACC-257 melanoma = test system: UACC-257 melanoma
UACC-62 melanoma = test system: UACC-62 melanoma
UO-31 renal = test system: UO-31 renal

SMILES: COc1ccc(-c2cc3cccc(OC)c3c(=O)o2)cc1OC
- GI50 (786-0 renal): 50.2 µM
- TGI (786-0 renal): > 100 µM
- GI50 (A498 renal): 81.7 µM
- TGI (A498 renal): > 100 µM
- GI50 (A549 NSCLC): 59.4 µM
- TGI (A549 NSCLC): > 100 µM
- GI50 (ACHN renal): 59.3 µM
- TGI (ACHN renal): > 100 µM
- GI50 (BT-549 breast): 0.636 µM
- TGI (BT-549 breast): 88 µM
- GI50 (CAKI-1 renal): 0.094 µM
- TGI (CAKI-1 renal): 32 µM
- GI50 (CCRF-CEM leukemia): 30.9 µM
- TGI (CCRF-CEM leukemia): > 100 µM
- GI50 (COLO 205 colon): 35.8 µM
- TGI (COLO 205 colon): > 100 µM
- GI50 (DU-145 prostate): 0.795 µM
- TGI (DU-145 prostate): > 100 µM
- GI50 (EKVX NSCLC): 0.83 µM
- TGI (EKVX NSCLC): 39.5 µM
- GI50 (HCT-116 colon): 29.6 µM
- TGI (HCT-116 colon): > 100 µM
- GI50 (HCT-15 colon): 23.4 µM
- TGI (HCT-15 colon): > 100 µM
- GI50 (HL-60(TB) leukemia): 76.2 µM
- TGI (HL-60(TB) leukemia): > 100 µM
- GI50 (HOP-62 NSCLC): 62.5 µM
- TGI (HOP-62 NSCLC): > 100 µM
- GI50 (HOP-92 NSCLC): 37.2 µM
- TGI (HOP-92 NSCLC): > 100 µM
- GI50 (HS 578T breast): 12.7 µM
- TGI (HS 578T breast): > 100 µM
- GI50 (HT29 colon): 8.49 µM
- TGI (HT29 colon): > 100 µM
- GI50 (IGROV1 ovarian): > 100 µM
- TGI (IGROV1 ovarian): > 100 µM
- GI50 (K-562 leukemia): 26.3 µM
- TGI (K-562 leukemia): > 100 µM
- GI50 (KM12 colon): 92.2 µM
- TGI (KM12 colon): > 100 µM
- GI50 (LOX IMVI melanoma): 11.5 µM
- TGI (LOX IMVI melanoma): > 100 µM
- GI50 (M14 melanoma): 93.9 µM
- TGI (M14 melanoma): > 100 µM
- GI50 (MALME-3M melanoma): > 100 µM
- TGI (MALME-3M melanoma): > 100 µM
- GI50 (MCF7 breast): 32 µM
- TGI (MCF7 breast): > 100 µM
- GI50 (MDA-MB-231 breast): 22.8 µM
- TGI (MDA-MB-231 breast): > 100 µM
- GI50 (MDA-MB-435): 3.22 µM
- TGI (MDA-MB-435): > 100 µM
- GI50 (MOLT-4 leukemia): 47.9 µM
- TGI (MOLT-4 leukemia): > 100 µM
- GI50 (NCI-H226 lung): 2.35 µM
- TGI (NCI-H226 lung): 86.5 µM
- GI50 (NCI-H23 lung): 47.9 µM
- TGI (NCI-H23 lung): > 100 µM
- GI50 (NCI-H460 lung): 31.1 µM
- TGI (NCI-H460 lung): > 100 µM
- GI50 (NCI-H522 lung): 48.6 µM
- TGI (NCI-H522 lung): > 100 µM
- GI50 (NCI/ADR-RES ovarian): 40.3 µM
- TGI (NCI/ADR-RES ovarian): > 100 µM
- GI50 (OVCAR-3 ovarian): 43.4 µM
- TGI (OVCAR-3 ovarian): > 100 µM
- GI50 (OVCAR-4 ovarian): > 100 µM
- TGI (OVCAR-4 ovarian): > 100 µM
- GI50 (OVCAR-5 ovarian): 85.5 µM
- TGI (OVCAR-5 ovarian): > 100 µM
- GI50 (OVCAR-8 ovarian): > 100 µM
- TGI (OVCAR-8 ovarian): > 100 µM
- GI50 (PC-3 prostate): 55.9 µM
- TGI (PC-3 prostate): > 100 µM
- GI50 (RPMI-8226 leukemia): 29.7 µM
- TGI (RPMI-8226 leukemia): > 100 µM
- GI50 (RXF 393 renal): 32 µM
- TGI (RXF 393 renal): > 100 µM
- GI50 (SF-268 CNS): 39.7 µM
- TGI (SF-268 CNS): > 100 µM
- GI50 (SF-295 CNS): 33.8 µM
- TGI (SF-295 CNS): > 100 µM
- GI50 (SF-539 CNS): 0.559 µM
- TGI (SF-539 CNS): 22.9 µM
- GI50 (SK-MEL-2 melanoma): > 100 µM
- TGI (SK-MEL-2 melanoma): > 100 µM
- GI50 (SK-MEL-28 melanoma): 44.4 µM
- TGI (SK-MEL-28 melanoma): > 100 µM
- GI50 (SK-MEL-5 melanoma): 4.14 µM
- TGI (SK-MEL-5 melanoma): 40.8 µM
- GI50 (SK-OV-3 ovarian): 46.2 µM
- TGI (SK-OV-3 ovarian): > 100 µM
- GI50 (SN12C renal): 19.7 µM
- TGI (SN12C renal): > 100 µM
- GI50 (SNB-19 CNS): 41.3 µM
- TGI (SNB-19 CNS): > 100 µM
- GI50 (SNB-75 CNS): 53.1 µM
- TGI (SNB-75 CNS): > 100 µM
- GI50 (SR leukemia): 0.436 µM
- TGI (SR leukemia): > 100 µM
- GI50 (SW-620 colon): 40 µM
- TGI (SW-620 colon): > 100 µM
- GI50 (T-47D breast): 28.3 µM
- TGI (T-47D breast): > 100 µM
- GI50 (TK-10 renal): > 100 µM
- TGI (TK-10 renal): > 100 µM
- GI50 (U251 CNS): 12.4 µM
- TGI (U251 CNS): > 100 µM
- GI50 (UACC-257 melanoma): 92.8 µM
- TGI (UACC-257 melanoma): > 100 µM
- GI50 (UACC-62 melanoma): 0.661 µM
- TGI (UACC-62 melanoma): > 100 µM
- GI50 (UO-31 renal): 95.4 µM
- TGI (UO-31 renal): > 100 µM
